Measured values reported in patent publication US9119881B2, “Method of synergistically enhancing the therapeutic efficacy and safety of medication through a combination therapy” (priority 2010, dated 2015).

Legend:
[1] = tested on: stromal vascular cells (SVCs); experiment: Gene expression in LPS-treated stromal vascular cells; type: cell-based, mice; settings: LPS 100 ng/mL, 6 h, ABA 10 μM, rosiglitazone 1 μM
Method: SVCs from abdominal white adipose tissue were isolated from db/db mice fed high-fat control diet for 60 days. Cells were seeded into 24-well plates at 1×10^6 cells/well and treated with LPS (100 ng/mL) with and without ABA (10 μM), Ros (1 μM), or ABA and Ros (ABA/Ros). The relative expressions of genes peroxisome proliferator activated receptor γ (PPAR γ) (A), CCL17 (B), monocyte chemoattractant protein 1 (MCP-1) (C), and mannose receptor (D) were calculated as a ratio to the housekeeping gene β-actin. Data are represented as mean±standard error.
Isolated cells from the stromal vascular fraction (SVF) of WAT from high-fat fed db/db mice were enumerated and seeded into 24-well plates at […] cells/well. […]
Total RNA was isolated from adipose tissue using the RNeasy Lipid Mini Kit (Qiagen) and from cells using the RNeasy Mini Kit (Qiagen) according to the manufacturer's instructions. […] Each gene amplicon was purified with the MiniElute PCR Purification Kit (Qiagen) and quantitated on an agarose gel by using a DNA mass ladder (Promega). […]
Complementary DNA (cDNA) concentrations for genes of interest were examined by real-time quantitative PCR using an iCycler IQ System and Sybr Green PCR master mix (Applied Biosystems, Foster City, Calif.). […] Results are presented as starting quantity of target cDNA (picograms) per microgram of total RNA.

F4/80+CD11b+ macrophages = experiment: Macrophage infiltration into white adipose tissue of db/db mice, flow cytometry; type: in vivo; settings: day 60
Method: Obese db/db mice were fed high-fat diets containing 0, 15, or 70 mg/kg diet rosiglitazone maleate (control, Ros^lo, and Ros^hi, respectively) with and without racemic ABA (100 mg/kg diet). On day 60 the percent of F4/80+CD11b+ in the stromal vascular fractions of abdominal white adipose tissue (Ab. WAT) (A) and subcutaneous WAT (B) were assessed by flow cytometry. The percent of CD11b+CCR2+ monocytes (C) and CD4+CD25+FoxP3+ Tregs (D) in blood were assessed in whole blood. The expressions of the M1 marker CCL17 (E) and peroxisome proliferator activated receptor γ (PPAR γ) (F) in Ab. WAT were calculated as a ratio to the housekeeping gene f3-actin. Data are represented as mean±standard error.
Mice (n=40) were fed one of six experimental diets: a control high-fat diet (control), a high-fat diet containing low dose rosiglitazone maleate (Ros^lo, 10 mg/kg diet), or a high-fat diet containing a high dose of rosiglitazone maleate (Ros^hi, 70 mg/kg diet), each with or without all racemic ABA (100 mg/kg, Sigma Aldrich, St. Louis, Mo.) for 60 days. […] Blood glucose levels were assessed with an ACCU-CHEK® Glucometer (Roche, Indianapolis, Ind.). An intraperitoneal glucose tolerance test (IPGTT, 1 g glucose/kg body weight) was conducted on fasted mice (12 h) for 0, 30, 90, and 180 minute time points and insulin levels were measured on day 54. […]

[2] = Intraperitoneal glucose tolerance test and fasting insulin in db/db mice; type: in vivo
Method: Obese db/db mice were fed high-fat diets containing […] mg/kg diet rosiglitazone maleate (control, Ros^lo, and Ros^hi, respectively) with and without racemic ABA (100 mg/kg diet). On day 42 mice underwent an intraperitoneal glucose tolerance test (IPGTT) (A). Areas under the curve (B) were calculated for each treatment. On day 55 fasting insulin levels were measured for mice on each diet (C). Data are represented as mean±standard error.
Mice (n=40) were fed one of six experimental diets: a control high-fat diet (control), a high-fat diet containing low dose rosiglitazone maleate (Ros^lo, 10 mg/kg diet), or a high-fat diet containing a high dose of rosiglitazone maleate (Ros^hi, 70 mg/kg diet), each with or without all racemic ABA (100 mg/kg, Sigma Aldrich, St. Louis, Mo.) for 60 days. Mice were weighed and fasting (12 h) blood glucose levels were taken weekly. Blood glucose levels were assessed with an ACCU-CHEK® Glucometer (Roche, Indianapolis, Ind.). An intraperitoneal glucose tolerance test (IPGTT, 1 g glucose/kg body weight) was conducted on fasted mice (12 h) for 0, 30, 90, and 180 minute time points and insulin levels were measured on day 54. On day 60 mice were sacrificed by CO2 narcosis with secondary thoracotomy. Abdominal WAT, inguinal subcutaneous WAT, and liver were then excised and weighed. Abdominal and subcutaneous WAT were then digested and fractionated.

CC1=CC(=O)CC(C)(C)C1(O)/C=C/C(C)=C\C(=O)O (racemic) [ABA, abscisic acid]
M1 marker CCL17 expression [1]: significantly reduced
ATM infiltration in SCAT (F4/80+CD11b+ macrophages; db/db mice fed the control and Ros^lo diets): significantly reduced
macrophage (ATM) infiltration into Ab. WAT (F4/80+CD11b+ macrophages; db/db mice, ABA 100 mg/kg diet, Ros^lo, or both, relative to the control diet): little effect
glucose tolerance (IPGTT) ([2]; day 42, relative to the control diet): significantly improved
fasting insulin levels ([2]; dietary ABA 100 mg/kg diet, P=0.04): significantly reduced
